For the test, the target named is T1, human GLP-1R receptor (Homo sapiens, UniProt P43220).
T1 construct: expressed in transfected cells
Kind of test: GLP-1R low expression cell assay (cAMP TR-FRET, CHO-K1_hGLP-1Rlow_clone10 cells). As to conditions: for EC50: cAMP TR-FRET, 30 min at 25° C. In kind it is cell-based. A digest of the protocol:
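CHO-K1 cells stably expressing low surface human GLP-1R (clone10), 1,000 cells/well, exposed to 10-point 3-fold compound dilutions for 30 min at 25 °C. cAMP measured by TR-FRET (Eu-cAMP tracer/ULight-anti-cAMP, 15 min). EC50 from Hill fit of duplicate percent activation relative to a parallel GLP-1 control agonist.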
In general terms: TR-FRET usually uses a lanthanide donor and a delayed reading to cut background.

The mark [1] stands for this setting: maximum activation relative to control GLP-1 peptide agonist.

T1 sequence (P43220 24-463): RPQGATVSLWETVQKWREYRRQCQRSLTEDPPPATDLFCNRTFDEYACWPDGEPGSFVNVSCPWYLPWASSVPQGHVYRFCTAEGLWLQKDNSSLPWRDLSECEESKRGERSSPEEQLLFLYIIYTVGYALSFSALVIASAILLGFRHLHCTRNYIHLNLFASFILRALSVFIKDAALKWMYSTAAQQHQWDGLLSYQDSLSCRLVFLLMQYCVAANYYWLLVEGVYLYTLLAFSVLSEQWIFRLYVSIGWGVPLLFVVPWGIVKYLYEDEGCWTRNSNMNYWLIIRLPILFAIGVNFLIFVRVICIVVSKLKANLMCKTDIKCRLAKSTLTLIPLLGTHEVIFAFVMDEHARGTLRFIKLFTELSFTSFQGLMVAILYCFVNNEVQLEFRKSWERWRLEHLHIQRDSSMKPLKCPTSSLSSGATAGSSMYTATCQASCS

For orientation: EC50 means the concentration at which the effect is half-maximal. A higher EC50 goes with a less potent agent. Usually Emax stands for the maximal effect, on the per cent scale that the assay sets. Compound `Cn1c(CN2CCC(c3cccc(OCc4ccc(C5COC5)cc4F)n3)CC2)nc2c(OC(F)F)cc(C(=O)O)cc21` [Compound 141, 4-(Difluoromethoxy)-2-((4-(6-((2-fluoro-4-(oxetan-3-yl)benzyl)oxy)pyridin-2-yl)piperidin-1-yl)methyl)-1-methyl-1H-benzo[d]imidazole-6-carboxylic acid] came in with an EC50 of 10 to 100 nM. Further, under setting [1], the Emax was > 85%. Regarding `COc1cc(C(=O)O)cc2c1nc(CN1CCC(c3cccc4c3O[C@H](c3ccc(C#N)cc3F)CO4)CC1)n2Cc1cncs1` [Compound 91, (R)-2-((4-(3-(4-cyano-2-fluorophenyl)-2,3-dihydrobenzo[b][1,4]dioxin-5-yl)piperidin-1-yl)methyl)-4-methoxy-1-(thiazol-5-ylmethyl)-1H-benzo[d]imidazole-6-carboxylic acid], the concentration giving a half-maximal response (EC50) lay within 100 to 1000 nM. The Emax under setting [1] was > 85%. The corresponding values for `O=C(O)c1ccc2nc(CN3CCC(c4cccc(OCc5ccc(Cl)cc5F)n4)CC3)[nH]c2c1O` [Compound 204, 2-((4-(6-((4-Chloro-2-fluorobenzyl)oxy)pyridin-2-yl)piperidin-1-yl)methyl)-7-hydroxy-1H-benzo[d]imidazole-6-carboxylic acid] are > 1000 nM and > 85%.

`COc1cc(C(=O)O)cc2c1nc(CN1CCC(c3cccc4c3O[C@@](C)(c3ccc(Cl)cn3)O4)CC1)n2Cc1cncs1` [Compound 32, (S)-2-((4-(2-(5-Chloropyridin-2-yl)-2-methylbenzo[d][1,3]dioxol-4-yl)piperidin-1-yl)methyl)-4-methoxy-1-(thiazol-5-ylmethyl)-1H-benzo[d]imidazole-6-carboxylic acid]: the EC50 was < 10 nM.

Consider `Cn1c(CN2CCC(c3cccc(OCc4ccc(Cl)cc4F)n3)CC2)nc2c(OC(F)F)cc(-c3n[nH]c(=O)o3)cc21` [Compound 234, 5-(2-((4-(6-((4-Chloro-2-fluorobenzyl)oxy)pyridin-2-yl)piperidin-1-yl)methyl)-4-(difluoromethoxy)-1-methyl-1H-benzo[d]imidazol-6-yl)-1,3,4-oxadiazol-2 (3H)-one], for which the EC50 is > 1000 nM. Also, the Emax under setting [1] was < 25%.

For the compound `Cn1c(CN2CCC(c3cccc(OCc4ccc(Cl)cc4F)n3)CC2)nc2c(OC(F)CF)cc(C(=O)O)cc21` (single isomer, unassigned) [Compound 329], the EC50 is < 10 nM. In addition, the Emax under setting [1] was > 85%. The corresponding values for `CC(F)(F)c1cc(C(=O)O)cc2c1nc(CN1CCC(c3cccc4c3O[C@@](C)(c3ccc(Cl)cn3)O4)CC1)n2C[C@@H]1CCO1` [Compound 386, 2-((4-((S)-2-(5-Chloropyridin-2-yl)-2-methylbenzo[d][1,3]dioxol-4-yl)piperidin-1-yl)methyl)-4-(1,1-difluoroethyl)-1-(((S)-oxetan-2-yl)methyl)-1H-benzo[d]imidazole-6-carboxylic acid] are 10 to 100 nM and > 85%. The corresponding values for `Cn1c(Cc2ccc(Oc3cccc(COc4ccc(Cl)cc4F)n3)cc2F)nc2c(OC(F)F)cc(C(=O)O)cc21` [Compound 367, 2-(4-((6-((4-Chloro-2-fluorophenoxy)methyl)pyridin-2-yl)oxy)-2-fluorobenzyl)-4-(difluoromethoxy)-1-methyl-1H-benzo[d]imidazole-6-carboxylic acid] are > 1000 nM and > 85%. As for `Cn1c(N[C@H]2CC[C@H](c3cccc(OCc4ccc(Cl)cc4F)n3)CC2)nc2c(OC(F)F)cc(C(=O)O)cc21` [Compound 371, 2-(((1r,4r)-4-(6-((4-Chloro-2-fluorobenzyl)oxy)pyridin-2-yl)cyclohexyl)amino)-4-(difluoromethoxy)-1-methyl-1H-benzo[d]imidazole-6-carboxylic acid], the half-maximal effective concentration (EC50) was > 1000 nM. The Emax under setting [1] is > 85%. In turn, `Cn1c(CN2CCC(c3ccnc(OCc4ccc(C#N)cc4F)n3)CC2)nc2c(OC(F)F)cc(C(=O)O)cc21` [Compound 145, 2-((4-(2-((4-Cyano-2-fluorobenzyl)oxy)pyrimidin-4-yl)piperidin-1-yl)methyl)-4-(difluoromethoxy)-1-methyl-1H-benzo[d]imidazole-6-carboxylic acid] returned an EC50 of 100 to 1000 nM. The Emax under setting [1] was > 85%.

With `CN1C(=O)[C@H](c2ccc(Cl)cc2F)Oc2c(C3CCN(Cc4nc5c(OC(F)F)cc(C(=O)O)cc5n4C)CC3)cccc21` [Compound 241, (S)-2-((4-(2-(4-chloro-2-fluorophenyl)-4-methyl-3-oxo-3,4-dihydro-2H-benzo[b][1,4]oxazin-8-yl)piperidin-1-yl)methyl)-4-(difluoromethoxy)-1-methyl-1H-benzo[d]imidazole-6-carboxylic acid], the concentration for a half-maximal effect (EC50) was > 1000 nM. Also, the Emax under setting [1] is < 25%. The compound `Cn1c(Cc2ccc(-c3cccc(OCc4ccc(Cl)cc4F)n3)cc2F)nc2c(OC(F)F)cc(C(=O)O)cc21` [Compound 198, 2-(4-(6-((4-Chloro-2-fluorobenzyl)oxy)pyridin-2-yl)-2-fluorobenzyl)-4-(difluoromethoxy)-1-methyl-1H-benzo[d]imidazole-6-carboxylic acid] registered an EC50 of 10 to 100 nM. Further, the Emax under setting [1] is > 85%.

With `Cn1c(CN2CCC(c3cccc4c3O[C@H](c3ccc(Cl)cc3F)CC4)CC2)nc2c(OC(F)F)cc(C(=O)O)cc21` [Compound 368, (S)-2-((4-(2-(4-Chloro-2-fluorophenyl)chroman-8-yl)piperidin-1-yl)methyl)-4-(difluoromethoxy)-1-methyl-1H-benzo[d]imidazole-6-carboxylic acid], the EC50 was > 1000 nM. Moreover, the Emax under setting [1] was 25 to 50%. `Cn1c(CN2CC=C(c3ccc(F)c(OCc4ccc(Cl)cc4F)c3)CC2)nc2c(OC(F)F)cc(C(=O)O)cc21` [Compound 152, 2-((4-(3-((4-Chloro-2-fluorobenzyl)oxy)-4-fluorophenyl)-3,6-dihydropyridin-1(2H)-yl)methyl)-4-(difluoromethoxy)-1-methyl-1H-benzo[d]imidazole-6-carboxylic acid] came in with a half-maximal effective concentration (EC50) of 10 to 100 nM. The maximal effect (Emax) under setting [1] is > 85%.

Turning to `Cn1c(CN2CCC(c3cccc(OCc4ccc(C#N)cc4F)n3)CC2)nc2c(OCCF)cc(C(=O)O)cc21` [Compound 183, 2-((4-(6-((4-Cyano-2-fluorobenzyl)oxy)pyridin-2-yl)piperidin-1-yl)methyl)-4-(2-fluoroethoxy)-1-methyl-1H-benzo[d]imidazole-6-carboxylic acid], the EC50 is < 10 nM. The Emax under setting [1] was > 85%.

In turn, `Cn1c(CN2CCC(c3cccc4c3O[C@@H](c3ccc(C#N)cc3F)CO4)CC2)nc2c(OC(F)F)cc(C(=O)O)cc21` [Compound 123, (S)-2-((4-(3-(4-Cyano-2-fluorophenyl)-2,3-dihydrobenzo[b][1,4]dioxin-5-yl)piperidin-1-yl)methyl)-4-(difluoromethoxy)-1-methyl-1H-benzo[d]imidazole-6-carboxylic acid] displayed an EC50 of 10 to 100 nM. In addition, the maximal response (Emax) under setting [1] was > 85%. On the same counts, the results for `CC(F)Oc1cc(C(=O)O)cc2c1nc(CN1CCC(c3cccc(OCc4ccc(Cl)cc4F)n3)CC1)n2C` (stereo not drawn) [Compound 359, 2-((4-(6-((4-Chloro-2-fluorobenzyl)oxy)pyridin-2-yl)piperidin-1-yl)methyl)-4-(1-fluoroethoxy)-1-methyl-1H-benzo[d]imidazole-6-carboxylic acid] are < 10 nM and > 85%. The corresponding values for `[2H]C([2H])([2H])N(c1nc2c(OC(F)F)cc(C(=O)O)cc2n1C)[C@H]1CC[C@H](c2cccc(OCc3ccc(Cl)cc3F)n2)CC1` [Compound 372, 2-(((1r,4r)-4-(6-((4-Chloro-2-fluorobenzyl)oxy)pyridin-2-yl)cyclohexyl)(methyl-d3)amino)-4-(difluoromethoxy)-1-methyl-1H-benzo[d]imidazole-6-carboxylic acid] are < 10 nM and > 85%. The corresponding values for `COc1cc(C(=O)O)cc2c1nc(CN1CCC(c3cccc4c3OC[C@H](c3ccc(C#N)cc3F)O4)CC1)n2C` [Compound 274, (S)-2-((4-(2-(4-Cyano-2-fluorophenyl)-2,3-dihydrobenzo[b][1,4]dioxin-5-yl)piperidin-1-yl)methyl)-4-methoxy-1-methyl-1H-benzo[d]imidazole-6-carboxylic acid] are > 1000 nM and < 25%.

For the compound `COc1cc(C(=O)O)cc2c1nc(Cc1ccc(-c3cccc(OCc4ccc(Cl)cc4F)n3)cc1F)n2C` [Compound 292, 2-(4-(6-((4-Chloro-2-fluorobenzyl)oxy)pyridin-2-yl)-2-fluorobenzyl)-4-methoxy-1-methyl-1H-benzo[d]imidazole-6-carboxylic acid], the EC50 was < 10 nM. Besides, under setting [1], the Emax is > 85%. `N#Cc1ccc(COc2cccc(C3CCN(Cc4nc5ccc(C(=O)O)c(O)c5n4C[C@@H]4CCO4)CC3)n2)c(F)c1` [Compound 377, (S)-2-((4-(6-((4-Cyano-2-fluorobenzyl)oxy)pyridin-2-yl)piperidin-1-yl)methyl)-7-hydroxy-1-(oxetan-2-ylmethyl)-1H-benzo[d]imidazole-6-carboxylic acid]: the EC50 is < 10 nM. Under setting [1], the “GLP-1R Low Expression Cell Assay Emax (%)” value is on record as “++++ (Emax is >85%)”.

Consider `CCOc1cc(C(=O)O)cc2c1nc(CN1CCC(Oc3cccc(COc4ccc(Cl)cc4F)n3)CC1)n2C` [Compound 256, 2-((4-((6-((4-chloro-2-fluorophenoxy)methyl)pyridin-2-yl)oxy)piperidin-1-yl)methyl)-4-ethoxy-1-methyl-1H-benzo[d]imidazole-6-carboxylic acid], for which the EC50 was < 10 nM. Under setting [1], the Emax was > 85%.

Take `COc1cc(C#CC(=O)O)cc2c1nc(CN1CCC(c3cccc(OCc4ccc(Cl)cc4F)n3)CC1)n2C[C@@H]1CCO1` [Compound 257, (S)-3-(2-((4-(6-((4-Chloro-2-fluorobenzyl)oxy)pyridin-2-yl)piperidin-1-yl)methyl)-4-methoxy-1-(oxetan-2-ylmethyl)-1H-benzo[d]imidazol-6-yl) propiolic acid]: the EC50 lay in the range of 10 to 100 nM. Under setting [1], this compound had an Emax of 50 to 85%.
